Measured values: patent publication US8639486B2, “Method for identifying inhibitors of Staphylococcus aureus” (Indian Institute of Science, priority 2010, dated 2014)
Residues, ends and D or L forms follow the SMILES beside them.

Key:
[1] = target: S. aureus N-Succinyl-L,L-DAP Desuccinylase (DapE), SEQ ID NO: 2 (Staphylococcus aureus, UniProt Q5HF23); assay: qualitative dipeptidase activity (TLC assay); format: biochemical, Staphylococcus aureus COL; parameters: key: +: Mild hydrolytic activity; ++: Moderate hydrolytic activity; +++: High hydrolytic activity; settings: 5.0 mg/mL dipeptide, 2 μg DapE, 50 mM Tris-HCl pH 7.5, 37° C., 30 min
S. aureus N-Succinyl-L,L-DAP Desuccinylase (DapE), SEQ ID NO: 2, sequence (Q5HF23 whole entry): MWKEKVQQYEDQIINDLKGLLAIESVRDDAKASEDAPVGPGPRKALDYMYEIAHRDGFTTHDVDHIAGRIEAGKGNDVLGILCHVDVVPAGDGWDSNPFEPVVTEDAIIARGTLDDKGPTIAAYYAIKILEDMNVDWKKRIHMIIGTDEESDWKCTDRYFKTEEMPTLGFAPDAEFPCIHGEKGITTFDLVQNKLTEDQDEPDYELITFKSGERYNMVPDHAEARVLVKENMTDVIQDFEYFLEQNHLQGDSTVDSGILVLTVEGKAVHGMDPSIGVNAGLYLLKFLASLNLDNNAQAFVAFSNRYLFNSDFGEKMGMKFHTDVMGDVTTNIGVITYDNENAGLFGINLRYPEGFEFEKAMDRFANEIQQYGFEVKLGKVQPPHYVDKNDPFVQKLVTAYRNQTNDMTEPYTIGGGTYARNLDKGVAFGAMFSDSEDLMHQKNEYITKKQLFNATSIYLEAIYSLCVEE

[2] = tested on: botanical DapA (N. sylvestris); settings: highly sensitive, read-out: IC50 of feedback inhibition by L-lysine; cited from earlier work
[3] = target: DapA from gram negative bacteria (E. coli) (Escherichia coli, UniProt P0A6L2); settings: less sensitive, read-out: IC50 of feedback inhibition by L-lysine; cited from earlier work
DapA from gram negative bacteria (E. coli), sequence (P0A6L2 whole entry): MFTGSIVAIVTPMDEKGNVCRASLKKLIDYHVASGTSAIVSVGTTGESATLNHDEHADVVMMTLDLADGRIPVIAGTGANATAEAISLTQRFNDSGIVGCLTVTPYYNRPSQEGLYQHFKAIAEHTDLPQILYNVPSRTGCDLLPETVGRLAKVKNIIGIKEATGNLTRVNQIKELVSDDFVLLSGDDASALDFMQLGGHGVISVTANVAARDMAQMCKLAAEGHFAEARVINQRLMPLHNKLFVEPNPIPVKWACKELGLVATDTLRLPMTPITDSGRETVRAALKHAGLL

[4] = tested on: CC(C)[C@H](NC(=O)[C@@H](N)Cc1ccccc1)C(=O)O; assay: purified protein, by the assay type; settings: Phe-Val, pH 7.5, 37° C.

C[C@H](N)C(=O)N[C@@H](CO)C(=O)O [Ala-Ser] (H-Ala-Ser-OH)
Activity (qualitative dipeptidase / hydrolytic activity) [1]: +

C[C@H](NC(=O)[C@@H](N)CCCN=C(N)N)C(=O)O [Arg-Ala] (H-Arg-Ala-OH)
Activity (qualitative dipeptidase / hydrolytic activity) [1]: +++

CC[C@H](C)[C@H](NC(=O)[C@@H](N)CCCN=C(N)N)C(=O)O [Arg-Ile] (H-Arg-Ile-OH)
Activity (qualitative dipeptidase / hydrolytic activity) [1]: +++

CC(C)C[C@H](NC(=O)[C@@H](N)CCCN=C(N)N)C(=O)O [Arg-Leu] (H-Arg-Leu-OH)
Activity (qualitative dipeptidase / hydrolytic activity) [1]: +++

CC(C)[C@H](NC(=O)[C@@H](N)CCCN=C(N)N)C(=O)O [Arg-Val] (H-Arg-Val-OH)
Activity (qualitative dipeptidase / hydrolytic activity) [1]: +++

NCCCC[C@H](NC(=O)[C@@H](N)CC(=O)O)C(=O)O [Asp-Lys] (H-Asp-Lys-OH)
Activity (qualitative dipeptidase / hydrolytic activity) [1]: +

NCCCC[C@H](NC(=O)CN)C(=O)O [Gly-Lys] (H-Gly-Lys-OH)
Activity (qualitative dipeptidase / hydrolytic activity) [1]: +

NCC(=O)N[C@@H](CO)C(=O)O [Gly-Ser] (H-Gly-Ser-OH)
Activity (qualitative dipeptidase / hydrolytic activity) [1]: +

CC(C)C[C@H](NC(=O)[C@@H](N)Cc1cnc[nH]1)C(=O)O [His-Leu] (H-His-Leu-OH)
Activity (qualitative dipeptidase / hydrolytic activity) [1]: +

NCCCC[C@H](N)C(=O)O [L-lysine]
IC50 [2]: 0.015 to 0.02 mM
IC50 [3]: 100 mM

CC(C)C[C@H](NC(=O)[C@@H](N)CCCCN)C(=O)O [Lys-Leu] (H-Lys-Leu-OH)
Activity (qualitative dipeptidase / hydrolytic activity) [1]: ++

NCCCC[C@H](N)C(=O)N[C@@H](Cc1ccccc1)C(=O)O [Lys-Phe]
Activity (qualitative dipeptidase / hydrolytic activity) [1]: ++

CC(C)[C@H](NC(=O)[C@@H](N)Cc1ccccc1)C(=O)O [Phe-Val] (H-Phe-Val-OH)
Activity (qualitative dipeptidase / hydrolytic activity) [1]: +++

N[C@@H](CO)C(=O)N[C@@H](Cc1cnc[nH]1)C(=O)O [Ser-His] (H-Ser-His-OH)
Activity (qualitative dipeptidase / hydrolytic activity) [1]: ++

S. aureus N-Succinyl-L,L-DAP Desuccinylase (DapE), holo form, SEQ ID NO: 2 (Staphylococcus aureus subsp. aureus COL)
Km ([4]; other: holo-DapE + Mn^2+ + TCEP): 1100 ± 100 µM
Km ([4]; other: holo-DapE + Mn^2+): 1150 ± 120 µM
Km ([4]; other: holo-DapE): 670 ± 100 µM
